pKi: −log10 of the molar value. Where two headings read alike, the source gives them in different places. Residues, ends and D or L forms follow the SMILES beside them.
Tests used:
[1] = system: DP IV; assay: Determination of the half-life (t1/2) of DP IV-catalyzed peptide truncation by MALDI-TOF MS; conditions: truncation by DP IV
Protocol: (§1) The degradation fate of peptides was measured by monitoring the signal intensity of the pseudomolecular ion peaks of parent peptides and N-terminal shorted peptides versus time when incubated with 40 mU procine DP IV, recombinant human DP IV or serum DP IV activity. […] As control served the preincubation of DP IV with 0.01M Tris-buffer (Sigma-Aldrich, Deisenhofen, Germany). The mass spectrometer employed was a Hewlett-Packard G2025 model with a linear time of flight analyzer; samples (4 μL) were mixed 1:1 v/v with matrix (44 mg diammonium-hydrogen-citrate and 30 mg 2′,6′-dihydroxyacetophenone in 1 ml aqueous solution containing 50% acetonitrile and 0.05% trifluoroacetic acid; Sigma-Aldrich), transferred to a probe tip and immediately evaporated using the Hewlett-Packard G2024A (Hewlett-Packard, Waldbronn, Germany) sample preparation vacuum chamber. 250 single laser-shot spectra were accumulated. This method of monitoring biodegradation has been validated and allows the general comparison of half-degradation times (t1/2) under various conditions.
(§2) The t1/2-calculation followed this procedure:
(§3) The height of the substrate peak was measured and set as 100% at time=0. During the reaction course the sum of substrate and product peak height were set as 100% and the percentage of the remaining substrate peak (also expressed as relative concentration) was determined. Diagrammed relative substrate concentration versus time t1/2 can be calculated based on first order exponential decay reaction course. [formula]

[2] = as above
Protocol: as §1, §2, §3

[3] = molecular target: T1, porcine DP IV (Sus scrofa, UniProt P22411); assay: MALDI-TOF approach: Ki of TFTSDY on DP IV-catalyzed peptide truncation; assay type: biochemical; conditions: K1, inhibitory effect on DP IV-catalyzed peptide truncation
T1 construct: purified DP IV from human, from porcine kidney, of recombinant human DP IV; from tissue; host or cells: porcine kidney
Protocol: (§4) 250 single laser-shot spectra were accumulated.
(§5) In order to investigate directly the influence of TFTSDY on the DP IV-catalyzed peptide hydrolysis the MALDI-TOF assay was used.
(§6) As described before (determination of t1/2) DP IV and TFTSDY were preincubated and the reaction was started by adding the enzyme/hexapeptide mixture to substrate/buffer mix. The control reaction mixture consisted of buffer, enzyme and substrate. From the curves of the first order exponential the initial rate (v1) for the control and the reversible inhibited reaction was calculated.
(§7) For the uninfluenced reaction the Michaelis-Menten-equation was used.
(§8) Vi was calculated from plotting the relative substrate concentration versus time.
(§9) Km is given, also the substrate concentration. [formula]
(§10) For the reversible inhibited reaction the following reaction was used to calculate Kl: [formula]

[4] = molecular target: T2, rec. human DP IV (Homo sapiens, UniProt P27487); assay: as above; assay type: biochemical; conditions: K1, inhibitory effect on DP IV-catalyzed peptide truncation
T2 construct: His6 (N); made in house; host or cells: Pichia pastoris X-33 (vector pPICαC, secreted into the medium)
Protocol: as §4, §5, §6, §7, §8, §9, §10

[5] = system: DP IV; assay: Peptide truncation by DP IV after preincubation with TFTSDY (MALDI-TOF); assay type: biochemical
Protocol: as §4, §5, §6

[6] = molecular target: T3, mu 15: recombinant human DP IV, mutation R560A (Homo sapiens, UniProt P27487, R560A); assay: Determination of Ki in competition to standard substrate GP-4NA; assay type: biochemical; conditions: mu 15 DP IV, competition to GP-4NA
T3 construct: His6 (N); made in house; host or cells: Pichia pastoris X-33 (vector pPICαC, secreted into the medium)
Protocol: (§11) In order to measure the inhibition constant Ki a photometric assay was used The peptides were measured as competitors of the standard substrate GP-4-Nitroanilide. Three different substrate concentrations (0.4 mM to 0.05 mM) were combined with 8 different competitor concentrations (0.5 mM to 2 μM). […] Experiments were carried out under standard conditions: 30° C. in pH 7.6 40 mM HEPES (Sigma-Aldrich) buffer. Nitroaniline production was monitored using a HTS 7000+ microplate reader (PerkinElmer, Überlingen, Germany).
(§12) For a reversible competitive inhibition is to assumed: [formula]

[7] = molecular target: T4, mu 16: recombinant human DP IV, mutation W629A (Homo sapiens, UniProt P27487, W629A); assay: as above; assay type: biochemical; conditions: mu 16 DP IV, competition to GP-4NA
T4 construct: His6 (N); made in house; host or cells: Pichia pastoris X-33 (vector pPICαC, secreted into the medium)
Protocol: as §11, §12

[8] = molecular target: T5, rh wt: recombinant human DP IV, wild type (Homo sapiens, UniProt P27487); assay: as above; assay type: biochemical; conditions: competition to GP-4NA
T5 construct: His6 (N); made in house; host or cells: Pichia pastoris X-33 (vector pPICαC, secreted into the medium)
Protocol: as §11, §12

T2 sequence (P27487 37-766): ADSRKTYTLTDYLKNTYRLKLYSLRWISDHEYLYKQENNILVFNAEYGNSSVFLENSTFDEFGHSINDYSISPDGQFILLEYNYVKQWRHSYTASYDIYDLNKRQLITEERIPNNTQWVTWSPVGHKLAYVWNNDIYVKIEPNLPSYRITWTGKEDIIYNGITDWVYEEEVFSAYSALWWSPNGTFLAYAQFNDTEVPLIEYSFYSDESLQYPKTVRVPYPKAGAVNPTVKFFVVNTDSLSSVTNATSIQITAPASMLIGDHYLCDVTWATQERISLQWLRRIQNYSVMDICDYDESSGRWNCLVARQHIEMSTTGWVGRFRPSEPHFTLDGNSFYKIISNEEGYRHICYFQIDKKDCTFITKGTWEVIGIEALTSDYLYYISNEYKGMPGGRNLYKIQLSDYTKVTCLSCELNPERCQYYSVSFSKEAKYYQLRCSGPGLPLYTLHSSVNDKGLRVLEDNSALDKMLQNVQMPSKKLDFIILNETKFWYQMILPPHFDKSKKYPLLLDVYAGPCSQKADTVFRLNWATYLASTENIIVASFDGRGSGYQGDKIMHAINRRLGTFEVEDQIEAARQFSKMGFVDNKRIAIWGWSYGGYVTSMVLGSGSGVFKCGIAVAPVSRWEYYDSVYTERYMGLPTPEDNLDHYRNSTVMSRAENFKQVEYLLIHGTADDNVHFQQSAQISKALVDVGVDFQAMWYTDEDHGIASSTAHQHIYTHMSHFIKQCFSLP
T1 sequence (P22411 whole entry, the tested form may be a part): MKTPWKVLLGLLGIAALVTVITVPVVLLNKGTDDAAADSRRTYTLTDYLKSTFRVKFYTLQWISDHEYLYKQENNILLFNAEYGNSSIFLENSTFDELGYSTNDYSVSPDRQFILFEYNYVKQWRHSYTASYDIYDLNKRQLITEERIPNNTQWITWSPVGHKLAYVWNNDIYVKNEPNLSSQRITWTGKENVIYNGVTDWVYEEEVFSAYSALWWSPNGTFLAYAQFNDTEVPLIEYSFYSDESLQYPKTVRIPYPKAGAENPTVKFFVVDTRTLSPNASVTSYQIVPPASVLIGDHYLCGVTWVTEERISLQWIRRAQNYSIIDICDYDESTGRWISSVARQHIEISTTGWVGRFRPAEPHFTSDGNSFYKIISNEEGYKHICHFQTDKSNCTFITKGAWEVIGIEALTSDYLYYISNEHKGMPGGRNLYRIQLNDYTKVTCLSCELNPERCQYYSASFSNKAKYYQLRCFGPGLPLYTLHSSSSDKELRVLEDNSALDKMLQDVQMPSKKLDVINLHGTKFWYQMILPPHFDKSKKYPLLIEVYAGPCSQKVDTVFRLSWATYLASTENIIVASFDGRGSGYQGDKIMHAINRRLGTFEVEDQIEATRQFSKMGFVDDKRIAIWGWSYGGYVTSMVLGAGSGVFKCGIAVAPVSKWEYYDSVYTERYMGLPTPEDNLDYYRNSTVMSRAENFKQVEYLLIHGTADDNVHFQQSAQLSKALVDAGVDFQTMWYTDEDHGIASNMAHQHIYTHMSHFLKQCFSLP
T3 sequence (P27487 37-766 R560A): as the sequence (P27487 37-766) above, with R524A counted along it
T4 sequence (P27487 37-766 W629A): as the sequence (P27487 37-766) above, with W593A counted along it
T5 sequence (P27487 37-766): as the sequence (P27487 37-766) above

In the case of C[C@@H](O)[C@H](NC(=O)CNC(=O)[C@H](CCC(=O)O)NC(=O)CNC(=O)[C@@H](N)Cc1ccc(O)cc1)C(=O)N[C@@H](Cc1ccccc1)C(=O)O [G^2GIP1-6] (H-YGEGTF-OH), the half-life [1] was “no degradation”.

With CC[C@H](C)[C@H](NC(=O)[C@H](CO)NC(=O)[C@H](Cc1ccc(O)cc1)NC(=O)[C@H](CC(=O)O)NC(=O)[C@H](CO)NC(=O)[C@@H](NC(=O)[C@H](Cc1ccccc1)NC(=O)[C@@H](NC(=O)CNC(=O)[C@H](CCC(=O)O)NC(=O)CNC(=O)[C@@H](N)Cc1ccc(O)cc1)[C@@H](C)O)[C@@H](C)CC)C(=O)N[C@@H](C)C(=O)N[C@@H](CCSC)C(=O)N[C@@H](CC(=O)O)C(=O)N[C@@H](CCCCN)C(=O)N[C@H](C(=O)N[C@@H](Cc1c[nH]cn1)C(=O)N[C@@H](CCC(N)=O)C(=O)N[C@@H](CCC(N)=O)C(=O)N[C@@H](CC(=O)O)C(=O)N[C@@H](Cc1ccccc1)C(=O)N[C@H](C(=O)N[C@@H](CC(N)=O)C(=O)N[C@@H](Cc1c[nH]c2ccccc12)C(=O)N[C@@H](CC(C)C)C(=O)N[C@@H](CC(C)C)C(=O)N[C@@H](C)C(=O)N[C@@H](CCC(N)=O)C(=O)N[C@@H](CCCCN)C(=O)O)C(C)C)[C@@H](C)CC [G^2GIP1-30] the half-life [2] was 2.5 h.

In the case of CC[C@H](C)[C@H](NC(=O)[C@H](CO)NC(=O)[C@H](Cc1ccc(O)cc1)NC(=O)[C@H](CC(=O)O)NC(=O)[C@H](CO)NC(=O)[C@@H](NC(=O)[C@H](Cc1ccccc1)NC(=O)[C@@H](NC(=O)CNC(=O)[C@H](CCC(=O)O)NC(=O)[C@H](CO)NC(=O)[C@@H](N)Cc1ccc(O)cc1)[C@@H](C)O)[C@@H](C)CC)C(=O)N[C@@H](C)C(=O)N[C@@H](CCSC)C(=O)N[C@@H](CC(=O)O)C(=O)N[C@@H](CCCCN)C(=O)N[C@H](C(=O)N[C@@H](Cc1c[nH]cn1)C(=O)N[C@@H](CCC(N)=O)C(=O)N[C@@H](CCC(N)=O)C(=O)N[C@@H](CC(=O)O)C(=O)N[C@@H](Cc1ccccc1)C(=O)N[C@H](C(=O)N[C@@H](CC(N)=O)C(=O)N[C@@H](Cc1c[nH]c2ccccc12)C(=O)N[C@@H](CC(C)C)C(=O)N[C@@H](CC(C)C)C(=O)N[C@@H](C)C(=O)N[C@@H](CCC(N)=O)C(=O)N[C@@H](CCCCN)C(=O)O)C(C)C)[C@@H](C)CC [S^2GIP1-30], the half-life [2] was 2.29 h.

Molecule C[C@@H](O)[C@H](N)C(=O)N[C@@H](Cc1ccccc1)C(=O)N[C@H](C(=O)N[C@@H](CO)C(=O)N[C@@H](CC(=O)O)C(=O)N[C@@H](Cc1ccc(O)cc1)C(=O)O)[C@@H](C)O [TFTSDY] (H-TFTSDY-OH; N-terminus and C-terminus assumed) has a pKi ([3]; substrate GIP) of 4.18, a pKi ([3]; substrate GLP-1) of 4.86 and a pKi ([3]; substrate NPY) of 4.76. For the same molecule, the pKi ([3]; substrate RANTES1-15) was at most 1.91, the pKi ([3]; substrate glucagon) was 5.17 and the pKi ([4]; substrate GIP) was 4.85. It also gave a pKi ([4]; substrate PACAP-27) of 4.57, a pKi ([4]; substrate PACAP-38) of 5.55 and a pKi ([4]; substrate glucagon) of 5.43. The “influence on affinity of oligopeptides such as GIP, VIP, glucagon” value ([5]; DP IV preincubated with TFTSDY) was “considerably reduced”, the “influence on binding and hydrolysis of small dipeptide substrates” value ([5]; DP IV preincubated with TFTSDY) was “only slightly influenced” and the “effect on truncation of substrate by DP IV” value ([5]; substrate Rantes1-15, 160 μM TFTSDY) was “No differences”.

With CC(C)[C@H](NC(=O)[C@@H](N)Cc1ccc(O)cc1)C(=O)N[C@@H](CCC(=O)O)C(=O)NCC(=O)N[C@H](C(=O)N[C@@H](Cc1ccccc1)C(=O)O)[C@@H](C)O [V^2GIP1-6] (H-YVEGTF-OH) the half-life [1] was “no degradation”.

CC[C@H](C)[C@H](NC(=O)[C@H](CO)NC(=O)[C@H](Cc1ccc(O)cc1)NC(=O)[C@H](CC(=O)O)NC(=O)[C@H](CO)NC(=O)[C@@H](NC(=O)[C@H](Cc1ccccc1)NC(=O)[C@@H](NC(=O)CNC(=O)[C@H](CCC(=O)O)NC(=O)[C@@H](NC(=O)[C@@H](N)Cc1ccc(O)cc1)C(C)C)[C@@H](C)O)[C@@H](C)CC)C(=O)N[C@@H](C)C(=O)N[C@@H](CCSC)C(=O)N[C@@H](CC(=O)O)C(=O)N[C@@H](CCCCN)C(=O)N[C@H](C(=O)N[C@@H](Cc1c[nH]cn1)C(=O)N[C@@H](CCC(N)=O)C(=O)N[C@@H](CCC(N)=O)C(=O)N[C@@H](CC(=O)O)C(=O)N[C@@H](Cc1ccccc1)C(=O)N[C@H](C(=O)N[C@@H](CC(N)=O)C(=O)N[C@@H](Cc1c[nH]c2ccccc12)C(=O)N[C@@H](CC(C)C)C(=O)N[C@@H](CC(C)C)C(=O)N[C@@H](C)C(=O)N[C@@H](CCC(N)=O)C(=O)N[C@@H](CCCCN)C(=O)O)C(C)C)[C@@H](C)CC [V^2GIP1-30] showed a half-life [2] of 4.97 h.

With C[C@H](NC(=O)[C@@H](N)Cc1ccc(O)cc1)C(=O)N[C@@H](CCC(=O)O)C(=O)N[C@@H](CO)C(=O)N[C@H](C(=O)N[C@@H](Cc1ccccc1)C(N)=O)[C@@H](C)O [YAESTF amide] (H-YAESTF-NH2; N-terminus assumed) the pKi ([6]; read-out: Ki) was 5.94 and the pKi ([7]; read-out: Ki) was 5.97.

With “Glucagon (1-14): glucagon fragment 1-14 (HSQGTFTSDYSKYL; Glucagon; UniProt P01275 53-66, looked up, fragment) [reference compound]” the Ki [6] was “no inhibition”, the Ki [8] was “no inhibition” and the Ki [7] was “no inhibition”.
